From patent US8067393B2 (priority 2005, dated 2011) come the findings set out here.

Where two headings read alike, the source gives them in different places. Where only a bound is given, the exact number is not on record here.

The target of assay [1] is T1, ConA (Canavalia ensiformis, UniProt P02866). Type of assay: binding. How it is done: A PBS-T (0.05%) solution containing glucose, maltose, GlcNAc, galactose, or lactose as a sugar chain at a concentration of 400 mM was prepared.
First, a PBS-T (0.05%) solution containing ConA or RCA120 at a concentration of 2 μM was prepared as a lectin solution, and the lectin solution was introduced to 96-well titer plate by adding 10 μl in each well. Then, a glucose solution, a maltose solution, or a GlcNAc solution was added to a ConA-added well by 20 μl in each well. A galactose solution or a lactose solution was added to a RCA120-added well by 20 μl in each well. The resulting solutions were stirred at a room temperature for 1 hour. […] The resulting solutions were stirred at a room temperature for 1 hour. After the stirring, absorbance of the stirred solutions at 525 nm was measured.
Values below the “after” column are IC50 obtained in a case where the sugar chain was added to an aggregate of the lectin and the colloid solution. Values below the “before” column are IC50 obtained in a case where the colloid solution was added to the admixture of the lectin and the sugar chain.

Another assay concerns the target RCA120 (Ricinus communis, UniProt P06750). The format is binding, caster bean. Details: key to Degree of dissociation: ⊚: lectin was completely dissociated; ◯: lectin was almost completely dissociated; Δ: lectin was dissociated with residual sugar-protein interactant (aggregate); X: the lactose-RCA120 interactant kept in aggregated state, and lectin was not dissociated therefrom.

The target of assay [2] is T1, ConA. The assay is described as follows: Dissociation of ConA from maltose-ConA interactant by added glucose. The format is binding. Particulars: visual observation. How it is done:
100 μl of PBS-T (0.05%) solution containing ConA at 250 μg/ml was placed in an Eppendorf tube. […] Then, a mixture solution was vortexed for at least 10 seconds. Thereafter, the resulting mixture solution was left for approximately 2 hours, and a sugar-protein interactant was precipitated out of the mixture solution by centrifugation. Then, supernatant thereof was removed, and the sugar-protein interactant was washed with PBS-T (0.05%) solution and water several times. After the washing, 100 μl of 200 mM glucose aqueous solution was added to the sugar-protein interactant, and the resulting mixture solution was left for approximately 1 hour.
First, 25 μl of PBS-T (0.05%) solution containing RCA120 at 250 μg/ml was placed in an Eppendorf tube. To the solution was added 25 μl of the colloid solution of lactose-immobilized gold nanoparticles which was prepared in Example 4. Then, a mixture solution was vortexed for at least 10 seconds. Thereafter, the resulting mixture solution was left for approximately 2 hours, and a sugar-protein interactant (lactose-RCA interactant) was precipitated out of the mixture solution by centrifugation. Then, supernatant thereof was removed, and the sugar-protein interactant was washed with PBS-T (0.05%) solution and water several times. […] The results were evaluated by visual observation and UV-Vis measurement. […]

In general, IC50 refers to the concentration that inhibits the measured activity by half. For the compound `CC(=O)N[C@H]1C(O)O[C@H](CO)[C@@H](O)[C@@H]1O` (some centres unmarked) [GlcNAc, N-acetyl glucosamine], the figures for the IC50 on ConA [1] (read-out: IC50 after) and at ConA [1] (read-out: IC50 before) were 80.1 mM and 22.9 mM, respectively.

Turning to `O=C[C@H](O)[C@@H](O)[C@@H](O)[C@H](O)CO` [galactose], at RCA120, the Degree of dissociation entry was “Δ and X and ◯”; the “concentration of added sugar solution at which excellent RCA120 dissociation was observed” value is not below 25 mM. Further, the “concentration of added sugar solution at which excellent ConA dissociation was observed” value on ConA [2] is not below 50 mM.
